Here are results for five compounds from DBAASP.

Converted amounts (≈) assume the structure as drawn. A value given as a limit tells only on which side of the number the result lay.

Among the test systems are Aeromonas hydrophila; Bacillus cereus; Bacillus subtilis; Candida albicans; Cryptococcus neoformans; Escherichia coli; Pseudomonas aeruginosa; Shigella flexneri; Staphylococcus aureus; Vibrio alginolyticus; Vibrio parahaemolyticus; Bacillus subtilis 168 HT; Escherichia coli MG1655; Escherichia coli UB1005; Aspergillus fumigatus; Sporothrix schenckii.
What all share (assay): ≥ marks a high value that may be exact or a test limit, other limits are often not marked, values filed in µg/mL are converted to µM
The subject of assay [1] is Bacillus subtilis ATCC 6633.
Assay [2] concerns Escherichia coli ATCC 10536.
For assay [3], the system named is Escherichia coli DH5alpha.
For assay [4], the system named is Staphylococcus aureus ATCC 9144.
The subject of assay [5] is Corynebacterium glutamicum.
Assay [6] relates to Staphylococcus epidermidis.
In assay [7] the test system is Burkholderia cepacia ATCC 25416.
Assay [8] deals with Escherichia coli DSM 1103.
The subject of assay [9] is Klebsiella pneumoniae DSM 681.
For assay [10], the system named is Pseudomonas aeruginosa DSM 1128.
Assay [11] concerns Pseudomonas aeruginosa H374.
In assay [12] the test system is Pseudomonas aeruginosa H547.
Assay [13] relates to Pseudomonas aeruginosa H744.
Assay [14] has as its system Pseudomonas aeruginosa K799.
Assay [15] relates to Pseudomonas aeruginosa Z61.
Assay [16] relates to Salmonella enterica subsp. enterica serovar Typhimurium ATCC 14028s.
Assay [17] concerns Staphylococcus aureus ATCC 25923.
Assay [18] deals with Streptococcus pneumoniae DSM 11865.
Assay [19] relates to Candida parapsilosis ATCC 22019.
In assay [20] the test system is Escherichia coli ATCC 9637.
Assay [21] deals with Klebsiella pneumoniae ATCC 27736.
Assay [22] has as its system Pseudomonas aeruginosa ATCC BAA-427.
The subject of assay [23] is Trichophyton mentagrophytes.

With `CC[C@H](C)[C@H](NC(=O)CN)C(=O)NCC(=O)N[C@@H](C)C(=O)N[C@H](C(=O)N[C@@H](CC(C)C)C(=O)N[C@@H](CCCCN)C(=O)N[C@H](C(=O)N[C@@H](C)C(=O)N[C@H](C(=O)N[C@H](C(=O)NCC(=O)N[C@@H](C)C(=O)N1CCC[C@H]1C(=O)N[C@@H](C)C(=O)N[C@@H](CC(C)C)C(=O)N[C@H](C(=O)N[C@@H](CO)C(=O)N[C@@H](Cc1c[nH]c2ccccc12)C(=O)N[C@H](C(=O)N[C@@H](CCCCN)C(=O)N[C@@H](CCCN=C(N)N)C(=O)N[C@@H](CCCCN)C(=O)N[C@@H](CCCN=C(N)N)C(=O)N[C@@H](CCC(N)=O)C(=O)N[C@@H](CCC(N)=O)C(N)=O)[C@@H](C)CC)[C@@H](C)CC)[C@@H](C)O)[C@@H](C)O)C(C)C)C(C)C` [GIGAVLKVATTGAPALISWIKRKRQQ], the MIC worked out at 20 µM (≈ 55.2 µg/mL) in assay [1], 4.5 µM (≈ 12.4 µg/mL) in [2], 4.3 µM (≈ 11.9 µg/mL) in assay [3] and 20 µM (≈ 55.2 µg/mL) in assay [4].

Regarding `CC[C@H](C)[C@H](NC(=O)[C@H](CC(C)C)NC(=O)[C@H](CCC(=O)O)NC(=O)[C@@H]1CCCN1C(=O)[C@H](CC(C)C)NC(=O)[C@H](Cc1cnc[nH]1)NC(=O)[C@@H](NC(=O)[C@H](CCCCN)NC(=O)[C@@H](NC(=O)[C@H](Cc1ccccc1)NC(=O)[C@H](CCCCN)NC(=O)[C@H](CCCN=C(N)N)NC(=O)[C@H](CS)NC(=O)[C@H](CC(C)C)NC(=O)[C@H](CO)NC(=O)[C@H](CCCCN)NC(=O)[C@H](CC(C)C)NC(=O)[C@H](CC(C)C)NC(=O)CN)C(C)C)C(C)C)C(=O)N[C@@H](CCC(=O)O)C(=O)N[C@@H](CCC(=O)O)C(=O)N[C@@H](CC(C)C)C(=O)N[C@H](C(=O)N[C@H](C(=O)N[C@H](C(=O)N[C@@H](CC(=O)O)C(=O)O)[C@@H](C)O)[C@@H](C)O)[C@@H](C)O` [GLLKSLCRKFVKVHLPELIEELTTTD], the MIC was at least 50 µM against Aeromonas hydrophila; at least 50 µM against Bacillus cereus; at least 50 µM with Bacillus subtilis; above 50 µM in the assay with Candida albicans; 8.84 µM (≈ 26.4 µg/mL) in assay [5]; at least 50 µM against Cryptococcus neoformans. For the same compound, the MIC was 35.4 µM (≈ 105 µg/mL) against Escherichia coli; above 50 µM against Pseudomonas aeruginosa; at least 50 µM against Shigella flexneri; above 50 µM against Staphylococcus aureus; at least 50 µM in assay [6]; at least 50 µM in the assay on Vibrio alginolyticus. In the assay on Vibrio parahaemolyticus, this compound returned an MIC of at least 50 µM.

As to `CC[C@H](C)[C@H](N)C(=O)N[C@@H](CO)C(=O)N[C@@H](CCCN=C(N)N)C(=O)N[C@@H](C)C(=O)N[C@@H](CS)C(=O)N[C@@H](CC(C)C)C(=O)N[C@H](C(=O)N[C@@H](CCSC)C(=O)N[C@@H](CCCCN)C(=O)N[C@H](C(=O)N[C@@H](CCCN=C(N)N)C(=O)N[C@@H](CCCN=C(N)N)C(=O)N[C@@H](CCCCN)C(=O)N[C@@H](CCCCN)C(=O)O)C(C)C)[C@@H](C)CC` [ISRACLIMKVRRKK], the values for the MIC in the assay with Bacillus subtilis 168 HT and against Escherichia coli MG1655 were 9.4 µM (≈ 16 µg/mL) and at least 37.6 µM, respectively.

For the compound `CC[C@H](C)[C@H](NC(=O)CNC(=O)[C@@H](NC(=O)[C@H](CCCCN)NC(=O)[C@H](CCCCN)NC(=O)[C@H](Cc1ccccc1)NC(=O)[C@H](CC(C)C)NC(=O)[C@H](CCCCN)NC(=O)[C@H](Cc1c[nH]c2ccccc12)NC(=O)[C@@H](N)CCCCN)[C@@H](C)CC)C(=O)NCC(=O)N[C@@H](C)C(=O)N[C@H](C(=O)N[C@@H](CC(C)C)C(=O)N[C@@H](CCCCN)C(=O)N[C@H](C(=O)N[C@@H](CC(C)C)C(=O)N[C@H](C(=O)N[C@H](C(=O)NCC(=O)N[C@@H](CC(C)C)C(=O)N1CCC[C@H]1C(=O)N[C@@H](C)C(=O)N[C@@H](CC(C)C)C(=O)N[C@@H](CCCCN)C(=O)N[C@@H](CC(C)C)C(=O)N[C@H](C(=O)N[C@@H](CCCCN)C(=O)O)[C@@H](C)O)[C@@H](C)O)[C@@H](C)O)C(C)C)C(C)C` [KWKLFKKIGIGAVLKVLTTGLPALKLTK], the MIC in assay [7] is 20.9 µM (≈ 64 µg/mL); in assay [8], 2.04 µM (≈ 6.25 µg/mL); against Escherichia coli UB1005, 0.652 µM (≈ 2 µg/mL); in assay [9] it was 2.04 µM (≈ 6.25 µg/mL); in assay [10], 1.02 µM (≈ 3.13 µg/mL); in assay [11], 0.652 µM (≈ 2 µg/mL). For the same compound, the minimum inhibitory concentration (MIC) turned out to be 1.3 µM (≈ 4 µg/mL) in assay [12]; 0.652 µM (≈ 2 µg/mL) in assay [13]; 0.979 µM (≈ 3 µg/mL) in assay [14]; 0.652 µM (≈ 2 µg/mL) in [15]; 0.979 µM (≈ 3 µg/mL) in assay [16]; 2.04 µM (≈ 6.25 µg/mL) in [17]. In addition, in assay [18], the minimum inhibitory concentration (MIC) was 2.04 µM (≈ 6.25 µg/mL).

Turning to `CC(C)C[C@H](NC(=O)[C@H](CC(C)C)NC(=O)[C@H](CCCN=C(N)N)NC(=O)[C@H](CCCN=C(N)N)NC(=O)[C@H](C)NC(=O)[C@H](Cc1c[nH]c2ccccc12)NC(=O)[C@H](CCCN=C(N)N)NC(=O)[C@H](C)NC(=O)[C@H](C)NC(=O)[C@H](CCCN=C(N)N)NC(=O)[C@H](CCCN=C(N)N)NC(=O)[C@@H](N)CC(C)C)C(=O)N[C@@H](CCCN=C(N)N)C(=O)N[C@@H](CCCN=C(N)N)C(=O)O` [LRRAARWARRLLRR], the MIC was 27 µM (≈ 50 µg/mL) in the assay with Aspergillus fumigatus; 1.7 µM (≈ 3.15 µg/mL) with Bacillus cereus; 6.76 µM (≈ 12.5 µg/mL) in assay [19]; 13.5 µM (≈ 25 µg/mL) in assay [20]; 3.38 µM (≈ 6.25 µg/mL) in [21]; 13.5 µM (≈ 25 µg/mL) in assay [22]. The MIC is 6.76 µM (≈ 12.5 µg/mL) against Sporothrix schenckii, 1.7 µM (≈ 3.15 µg/mL) in assay [17] and at least 54 µM in assay [23].

As a reminder, the MIC is the least concentration at which growth counts as inhibited. A higher MIC goes with a less susceptible organism.
